The values that follow come from US11459325B2, “Heterocyclic compound” (Takeda Pharmaceutical Company Limited, priority 2018, dated 2022).

The first test has as its system GBA mutant human fibroblasts GM008760. Description: Glucosylceramide lowering assay. Format: cell-based. As to conditions: 10 μM test compound, 4 days culture; GlcCer (C16:0)/Cer (C16:0) molar ratio of test compound group relative to DMSO control group x100; smaller value = glucosylceramide lowering. The procedure, abridged: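 Fibroblasts with mutant GBA were treated with 10 μM compound for 4 days. Lipids extracted in ethanol/isopropanol with deuterated internal standard; GlcCer (C16:0) and Cer (C16:0) quantified by RapidFire-MS/MS. Value is GlcCer/Cer ratio relative to DMSO control ×100.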
`Cc1cn(C)c(=O)c2c(C(=O)N3CC4CC4(c4ccc(OC(F)(F)F)cc4)C3)cnn12` (centres unmarked) [Example 309, 5,7-dimethyl-3-((1-(4-(trifluoromethoxy)phenyl)-3-azabicyclo[3.1.0]hex-3-yl)carbonyl)pyrazolo[1,5-a]pyrazin-4(5H)-one]: the “10 μM GlcCer/Cer (% of control)” value is on record as 44 % of control.

The same test, now with this note: Homo sapiens, Fibroblast, 96 h; 10 μM test compound, 4 days culture; GlcCer (C16:0)/Cer (C16:0) molar ratio of test compound group relative to DMSO control group x100; smaller value = glucosylceramide lowering.
In the case of `Cc1cn(C)c(=O)c2c(C(=O)N3CCC(Oc4ccc(Cl)cc4)CC3)cn(C)c12` [Example 189, 3-((4-(4-chlorophenoxy)piperidin-1-yl)carbonyl)-1,5,7-trimethyl-1,5-dihydro-4H-pyrrolo[3,2-c]pyridin-4-one], the activity at 10 µM was found to be 36%.

With `Cc1cn(C)c(=O)c2c(C(=O)N3CC4CC4(c4cccc(Cl)c4Cl)C3)cn(C)c12` (centres unmarked) [Example 121, 3-((1-(2,3-dichlorophenyl)-3-azabicyclo[3.1.0]hex-3-yl)carbonyl)-1,5,7-trimethyl-1,5-dihydro-4H-pyrrolo[3,2-c]pyridin-4-one], the activity at 10 µM was found to be 68%.

Consider `Cc1cn(C)c(=O)c2c(C(=O)NCc3noc(-c4ccc(Cl)cc4)n3)cnn12` [Example 286, N-((5-(4-chlorophenyl)-1,2,4-oxadiazol-3-yl)methyl)-5,7-dimethyl-4-oxo-4,5-dihydropyrazolo[1,5-a]pyrazine-3-carboxamide], for which the activity at 10 µM was 67%. With `Cc1cn(C)c(=O)c2c(C(=O)N3CCC(Oc4ccc(C(F)(F)F)cc4)CC3)cn(C)c12` [Example 190, 1,5,7-trimethyl-3-((4-(4-(trifluoromethyl)phenoxy)piperidin-1-yl)carbonyl)-1,5-dihydro-4H-pyrrolo[3,2-c]pyridin-4-one], the activity at 10 µM was found to be 29%. In the case of `Cc1cn(C)c(=O)c2c(C(=O)N3CC4CC4(c4ccccc4F)C3)cn(C)c12` (centres unmarked) [Example 126, 3-((1-(2-fluorophenyl)-3-azabicyclo[3.1.0]hex-3-yl)carbonyl)-1,5,7-trimethyl-1,5-dihydro-4H-pyrrolo[3,2-c]pyridin-4-one], the activity at 10 µM is 61%. Same read-out and setting: in the case of `Cc1cn(C)c(=O)c2c(C(=O)N3CCC(Oc4cccc(Cl)c4)CC3)cn(C)c12` [Example 188, 3-((4-(3-chlorophenoxy)piperidin-1-yl)carbonyl)-1,5,7-trimethyl-1,5-dihydro-4H-pyrrolo[3,2-c]pyridin-4-one] it was 65%. With `Cc1cn(C)c(=O)c2c(C(=O)Nc3cccc(OCc4ccccc4)c3)cn(C)c12` [Example 231, N-(3-(benzyloxy)phenyl)-1,5,7-trimethyl-4-oxo-4,5-dihydro-1H-pyrrolo[3,2-c]pyridine-3-carboxamide], the activity at 10 µM worked out at 59%.
